row,Structure (SMILES),melting point [°C]
1,"COc1ccc(N2CCOCC2)c2sc(C(=O)Nc3ccncc3)nc12 [Example 53, 4-Methoxy-7-morpholin-4-yl-benzothiazole-2-carboxylic acid pyridin-4-ylamide]",206 to 207
2,"COc1ccc(N2CCOCC2)c2sc(C(=O)Nc3ccc(C)nc3)nc12 [Example 82, 4-Methoxy-7-morpholin-4-yl-benzothiazole-2-carboxylic acid (6-methyl-pyridin-3-yl)-amide]",145 to 147
3,"COc1ccc(N2CCOCC2)c2sc(C(=O)NC3CCCCC3)nc12 [Example 5, 4-Methoxy-7-morpholin-4-yl-benzothiazole-2-carboxylic acid cyclohexylamide]",146 to 147
4,"COc1ccc(N2CCOCC2)c2sc(C(=O)NCCSc3nnc(N)s3)nc12 [Example 83, 4-Methoxy-7-morpholin-4-yl-benzothiazole-2-carboxylic acid [2-(5-amino-[1,3,4]thiadiazol-2-ylsulfanyl)-ethyl]-amide]",237 to 239
5,"COc1ccc(N2CCOCC2)c2sc(C(=O)NCCc3ccncc3)nc12 [Example 48, 4-Methoxy-7-morpholin-4-yl-benzothiazole-2-carboxylic acid (2-pyridin-4-yl-ethyl)-amide]",185 to 188
6,"COc1ccc(N2CCOCC2)c2sc(C(=O)NCCCCN3C(=O)c4ccccc4C3=O)nc12 [Example 33, 4-Methoxy-7-morpholin-4-yl-benzothiazole-2-carboxylic acid [4-(1,3-dioxo-1,3-dihydro-isoindol-2-yl)-butyl]-amide]",114 to 118
7,COc1ccc(N2CCOCC2)c2sc(C(=O)NCCc3cccc(C(F)(F)F)c3)nc12 [Example 60],106 to 108

# The next lines start with the values.
row,melting point [°C],Structure (SMILES)
1,226 to 227,"COc1ccc(N2CCOCC2)c2sc(C(=O)NNc3ccccc3)nc12 [Example 51, 4-Methoxy-7-morpholin-4-yl-benzothiazole-2-carboxylic acid N′-phenyl-hydrazide]"
2,165 to 166,"COc1ccc(N2CCOCC2)c2sc(C(=O)NCCc3cccc(NC(C)=O)c3)nc12 [Example 50, 4-Methoxy-7-morpholin-4-yl-benzothiazole-2-carboxylic acid [2-(3-acetylamino-phenyl)-ethyl]-amide]"
3,> 260,"COc1ccc(N2CCOCC2)c2sc(C(=O)NNC(=O)c3ccccc3)nc12 [Example 46, 4-Methoxy-7-morpholin-4-yl-benzothiazole-2-carboxylic acid N′-benzoyl-hydrazide]"
4,181 to 184,"COc1ccc(N2CCOCC2)c2sc(C(=O)NCc3cccnc3)nc12 [Example 18, 4-Methoxy-7-morpholin-4-yl-benzothiazole-2-carboxylic acid (pyridin-3-ylmethyl)-amide]"
5,207 to 209,"COc1ccc(N2CCOCC2)c2sc(C(=O)NCc3ccncc3)nc12 [Example 31, 4-Methoxy-7-morpholin-4-yl-benzothiazole-2-carboxylic acid (pyridin-4-ylmethyl)-amide]"
6,185 to 187,"COc1ccc(N2CCOCC2)c2sc(C(=O)NCC(=O)c3sc4ccccc4c3C)nc12 [Example 76, 4-Methoxy-7-morpholin-4-yl-benzothiazole-2-carboxylic acid [2-(3-methyl-benzo[b]thiophen-2-yl)-2-oxo-ethyl]-amide]"
7,136 to 138,"COc1ccc(N2CCOCC2)c2sc(C(=O)NCCc3ccc(C)cc3)nc12 [Example 61, 4-Methoxy-7-morpholin-4-yl-benzothiazole-2-carboxylic acid (2-p-tolyl-ethyl)-amide]"
8,171 to 173,"COc1ccc(N2CCOCC2)c2sc(C(=O)NCC(=O)c3cccs3)nc12 [Example 78, 4-Methoxy-7-morpholin-4-yl-benzothiazole-2-carboxylic acid (2-oxo-2-thiophen-2-yl-ethyl)-amide]"
9,133 to 134,"COc1ccc(N2CCOCC2)c2sc(C(=O)NCc3ccccc3F)nc12 [Example 21, 4-Methoxy-7-morpholin-4-yl-benzothiazole-2-carboxylic acid 2-fluoro-benzylamide]"

# Reference: US6596718B1, “7-Morpholin-4yl-benzothiazole amide derivatives” (Hoffmann-La Roche Inc., priority 2001, dated 2003)
